Values after ≈ are worked out from the molar mass of the structure shown. “Also recorded” adds a separate entry of the source. Where two headings read alike, the source gives them in different places.
Assays:
MRSA 70 = experiment: MIC, agar plate dilution method; format: cell-based, methicillin-resistant Staphylococcus aureus; settings: Staphylococcus aureus
Description: (§1) Assay of minimum inhibitory concentration (MIC) was performed according to the agar plate dilution method (Method of Japan Society of Chemotherapy, CHEMOTHERAPY 29, 76-79, 1981).
(§2) Test organisms used were 27 types of microorganisms including clinical isolates of methicillin-resistant Staphylococcus aureus. Each test organism was cultured in Mueller-Hinton broth (2.1% w/v) (DIFCO) at 37° C. for 20 hours, and the cultured cells were suspended to about 10^6 cell counts/ml in the same medium, then was used as the microbial suspension for inoculation. The prepared microbial suspension was smeared by using the microplanter on MHA medium (Mueller-Hinton broth 2.1% (w/v) and agar 1.5%) containing K04-0144A substance, K04-0144B substance or K04-0144C substance, each of which was subjected to two-fold stepwise dilution from 128 μg/ml. After culturing at 37° C. for 20 hours, MIC was determined by macroscopically confirming the growth of microorganisms. Vancomycin, arbekacin and linezolid were used as a comparative control.

MRSA 92-1191 = experiment: MIC, agar plate dilution method; format: cell-based, methicillin-resistant Staphylococcus aureus; settings: Staphylococcus aureus
Description: as §1, §2

MRSA N315 IR94 HR-1 = experiment: MIC, agar plate dilution method; format: cell-based, methicillin-resistant Staphylococcus aureus; settings: Staphylococcus aureus, 20 h
Description: as §1, §2

MRSA N315 IR94 = experiment: MIC, agar plate dilution method; format: cell-based, methicillin-resistant Staphylococcus aureus; settings: Staphylococcus aureus, 20 h
Description: as §1, §2

A. calcoaceticus IFO2552 = experiment: MIC, agar plate dilution method; format: cell-based; settings: Acinetobacter calcoaceticus
Description: as §1, §2

C. freundii ATCC8090 = experiment: MIC, agar plate dilution method; format: cell-based; settings: Citrobacter freundii
Description: as §1, §2

E. aerogenes NCTC10006 = experiment: MIC, agar plate dilution method; format: cell-based; settings: Klebsiella aerogenes
Description: as §1, §2

E. cloacae IFO13535 = experiment: MIC, agar plate dilution method; format: cell-based; settings: Enterobacter cloacae
Description: as §1, §2

E. coli NIHJ JC-2 = experiment: MIC, agar plate dilution method; format: cell-based; settings: Escherichia coli
Description: as §1, §2

[1] = tested on: E. facecalis NTCT12201(VanA); experiment: MIC, agar plate dilution method; format: cell-based
Description: as §1, §2

E. faecalis ATCC21212 = experiment: MIC, agar plate dilution method; format: cell-based; settings: Enterococcus faecalis
Description: as §1, §2

[2] = tested on: E. faecium NTCT12203(VanA); experiment: MIC, agar plate dilution method; format: cell-based; settings: Enterococcus faecium
Description: as §1, §2

K. pneumoniae NCTN9632 = experiment: MIC, agar plate dilution method; format: cell-based; settings: Klebsiella pneumoniae
Description: as §1, §2

M. luteus ATCC9341 = experiment: MIC, agar plate dilution method; format: cell-based; settings: Micrococcus luteus
Description: as §1, §2

M. morganii IID Kono = experiment: MIC, agar plate dilution method; format: cell-based; settings: Morganella morganii
Description: as §1, §2

P. aeruginosa 46001 = experiment: MIC, agar plate dilution method; format: cell-based
Description: as §1, §2

P. aeruginosa E-2 = experiment: MIC, agar plate dilution method; format: cell-based; settings: Pseudomonas aeruginosa
Description: as §1, §2

P. mirabilis IFO3849 = experiment: MIC, agar plate dilution method; format: cell-based; settings: Proteus mirabilis
Description: as §1, §2

P. vulgaris OX-19 = experiment: MIC, agar plate dilution method; format: cell-based; settings: Proteus vulgaris
Description: as §1, §2

S. aureus 8325(pEP2104) = experiment: MIC, agar plate dilution method; format: cell-based; settings: Staphylococcus aureus, 20 h
Description: as §1, §2

S. aureus 8325(pMS97) = experiment: MIC, agar plate dilution method; format: cell-based; settings: Staphylococcus aureus, 20 h
Description: as §1, §2

S. aureus FDA209P = experiment: MIC, agar plate dilution method; format: cell-based; settings: Staphylococcus aureus
Description: as §1, §2

S. aureus ISP217 = experiment: MIC, agar plate dilution method; format: cell-based; settings: Staphylococcus aureus
Description: as §1, §2

S. aureus ISP447 = experiment: MIC, agar plate dilution method; format: cell-based; settings: Staphylococcus aureus
Description: as §1, §2

S. aureus Smith = experiment: MIC, agar plate dilution method; format: cell-based; settings: Staphylococcus aureus
Description: as §1, §2

S. epidermidis IFO12648 = experiment: MIC, agar plate dilution method; format: cell-based; settings: Staphylococcus epidermidis
Description: as §1, §2

S. marcescens IFO12648 = experiment: MIC, agar plate dilution method; format: cell-based; settings: Serratia marcescens
Description: as §1, §2

[3] = tested on: clinical isolate of MRSA (K24 strain); experiment: MRSA infectious model using silkworms; format: in vivo, silkworm; settings: 72 hours after the inoculation
Description: As an alternative method for in vivo MRSA infection model using animals, the infection system using silkworms has been reported (Kaito et al, Microbial Pathogenesis, 32: 183-190, 2002). Effect of K04-0144A substance was measured according to this method.
Test organism used was the clinical isolate of MRSA (K24 strain). The MRSA was cultured statically using LB-10 medium (DIFCO) at 37° C. for 18 hours, and a 50 μl of the cultured strain was inoculated into the hemolymph of silkworm, 5 instar, 2nd day, (about 2 g, Ehime sansyu eggs Co., Japan). K04-0144A substance was prepared to a solution of 1 mg/ml, and 50 μl of the solution were administered by using syringe to the dorsal vessel of 5 silkworms infected with MRSA (25 mg/kg). Effect of the K04-0144A substance was evaluated by comparing the survival rate between a group with administering the sample and a group without administering the sample during the raising period of 72 hours after the inoculation. […] Further, all silkworms administered with 50 μl of MRSA bacterial suspension died within 72 hours after the inoculation.

[4] = tested on: MRSA (Clinical isolate, the Kitasato Hospital, Japan); experiment: Enhancing action of K04-0144D substance on antibiotic activities, broth microdilution method; format: cell-based, methicillin-resistant Staphylococcus aureus
silkworms = experiment: Toxicity against silkworms (substance only, no infection); format: in vivo, silkworm; settings: 25 mg/kg, uninfected silkworms, 72 hours
Solubility in solvent = format: physicochemical; settings: listed as K04-0144A substance

SMILES: CN[C@H](CC(C)C)C(=O)N[C@H]1C(=O)N[C@@H](CC(N)=O)C(=O)N[C@H]2C(=O)N[C@H]3C(=O)N[C@H](C(=O)N[C@H](C(=O)O)c4cc(O)cc(O)c4-c4cc3ccc4O)[C@H](O)c3ccc(c(Cl)c3)Oc3cc2cc(c3O[C@@H]2O[C@H](CO)[C@@H](O)[C@H](O)[C@H]2O[C@H]2C[C@](C)(N)[C@H](O)[C@H](C)O2)Oc2ccc(cc2Cl)[C@H]1O [vancomycin, reference compound]
- MIC (MRSA 70; MRSA, 20 h): 0.5 µg/mL (≈ 0.345 µM)
- MIC (MRSA 92-1191; MRSA, 20 h): 1 µg/mL (≈ 0.69 µM)
- MIC (MRSA N315 IR94 HR-1): 0.5 µg/mL (≈ 0.345 µM)
- MIC (MRSA N315 IR94): 0.5 µg/mL (≈ 0.345 µM)
- MIC (A. calcoaceticus IFO2552; IFO2552, 20 h): > 32 µg/mL
- MIC (C. freundii ATCC8090; ATCC8090, 20 h): > 32 µg/mL
- MIC (E. aerogenes NCTC10006; NCTC10006, 20 h): > 32 µg/mL
- MIC (E. cloacae IFO13535; IFO13535, 20 h): > 32 µg/mL
- MIC (E. coli NIHJ JC-2; NIHJJC2, 20 h): > 32 µg/mL
- MIC ([1]; 20 h): > 32 µg/mL
- MIC (E. faecalis ATCC21212; ATCC21212, 20 h): 4 µg/mL (≈ 2.76 µM)
- MIC ([2]; 20 h): > 32 µg/mL
- MIC (K. pneumoniae NCTN9632; NCTN9632, 20 h): > 32 µg/mL
- MIC (M. luteus ATCC9341; ATCC9341, 20 h): 1 µg/mL (≈ 0.69 µM)
- MIC (M. morganii IID Kono; 20 h): > 32 µg/mL
- MIC (P. aeruginosa 46001; Pseudomonas aeruginosa, 46001, 20 h): > 32 µg/mL
- MIC (P. aeruginosa E-2; E2, 20 h): > 32 µg/mL
- MIC (P. mirabilis IFO3849; IFO3849, 20 h): > 32 µg/mL
- MIC (P. vulgaris OX-19; OX19, 20 h): > 32 µg/mL
- MIC (S. aureus 8325(pEP2104)): 2 µg/mL (≈ 1.38 µM)
- MIC (S. aureus 8325(pMS97)): 1 µg/mL (≈ 0.69 µM)
- MIC (S. aureus FDA209P; FDA209P, 20 h): 1 µg/mL (≈ 0.69 µM)
- MIC (S. aureus ISP217; ISP217, 20 h): 1 µg/mL (≈ 0.69 µM)
- MIC (S. aureus ISP447; ISP447, 20 h): 1 µg/mL (≈ 0.69 µM)
- MIC (S. aureus Smith; 20 h): 1 µg/mL (≈ 0.69 µM)
- MIC (S. epidermidis IFO12648; IFO12648, 20 h): 1 µg/mL (≈ 0.69 µM)
- MIC (S. marcescens IFO12648; IFO12648, 20 h): > 32 µg/mL
- survival of silkworms infected with MRSA ([3]; 25 mg/kg): survived after 72 hours of the inoculation
- enhancing action of K04-0144D substance on the antibiotic's activity ([4]; K04-0144D substance 16 μg/ml): no enhancing action
- Ratio (−/+K04-0144D) ([4]; MIC alone / MIC with K04-0144D substance 16 μg/ml): 1
- MIC ([4]; Staphylococcus aureus, MRSA, read-out: Minimum Inhibitory Concentration (−)): 1 µg/mL

SMILES: C=C(C/C=C(\C)CCC=C(C)C)CCC(C)(C)/C=C/CC/C(C)=C\COC(COP(=O)(O)OC1OC(C(N)=O)C(C)(O)C(OC(N)=O)C1OC1OC(COC2OC(CO)C(O)C(O)C2O)C(OC2OC(C)C(OC3OC(C(=O)O)C(O)C(O)C3O)C(O)C2NC(C)=O)C(O)C1NC(C)=O)C(=O)O (stereo not drawn) [K04-0144A]
- MIC (MRSA 70; MRSA 70, 37° C., 20 hours, read-out: MIC): 0.06 µg/mL (≈ 0.0403 µM)
- MIC (MRSA 92-1191; MRSA 92-1191, 37° C., 20 hours, read-out: MIC): 0.25 µg/mL (≈ 0.168 µM)
- MIC (MRSA N315 IR94 HR-1): 0.125 µg/mL (≈ 0.084 µM)
- MIC (A. calcoaceticus IFO2552; A. calcoaceticus IFO2552, 37° C., 20 hours, read-out: MIC): 16 µg/mL (≈ 10.8 µM)
- MIC (C. freundii ATCC8090; C. freundii ATCC8090, 37° C., 20 hours, read-out: MIC): > 16 µg/mL
- MIC (E. aerogenes NCTC10006; E. aerogenes NCTC10006, 37° C., 20 hours, read-out: MIC): > 16 µg/mL
- MIC (E. cloacae IFO13535; E. cloacae IFO13535, 37° C., 20 hours, read-out: MIC): > 16 µg/mL
- MIC (E. coli NIHJ JC-2; NIHJJC2, E. coli NIHJ JC-2, 37° C., 20 hours, read-out: MIC): > 16 µg/mL
- MIC ([1]; E. facecalis NTCT12201(VanA), 37° C., 20 hours, read-out: MIC): 1 µg/mL (≈ 0.672 µM)
- MIC (E. faecalis ATCC21212; E. faecalis ATCC21212, 37° C., 20 hours, read-out: MIC): 1 µg/mL (≈ 0.672 µM)
- MIC ([2]; E. faecium NTCT12203(VanA), 37° C., 20 hours, read-out: MIC): > 16 µg/mL
- MIC (K. pneumoniae NCTN9632; K. pneumoniae NCTN9632, 37° C., 20 hours, read-out: MIC): > 16 µg/mL
- MIC (M. luteus ATCC9341; M. luteus ATCC9341, 37° C., 20 hours, read-out: MIC): > 16 µg/mL
- MIC (M. morganii IID Kono; M. morganii IID Kono, 37° C., 20 hours, read-out: MIC): > 16 µg/mL
- MIC (P. aeruginosa 46001; Pseudomonas aeruginosa, P. aeruginosa 46001, 37° C., 20 hours, read-out: MIC): > 16 µg/mL
- MIC (P. aeruginosa E-2; E2, P. aeruginosa E-2, 37° C., 20 hours, read-out: MIC): > 16 µg/mL
- MIC (P. mirabilis IFO3849; P. mirabilis IFO3849, 37° C., 20 hours, read-out: MIC): > 16 µg/mL
- MIC (P. vulgaris OX-19; OX19, P. vulgaris OX-19, 37° C., 20 hours, read-out: MIC): > 16 µg/mL
- MIC (S. aureus 8325(pEP2104)): 0.06 µg/mL (≈ 0.0403 µM)
- MIC (S. aureus 8325(pMS97)): 0.5 µg/mL (≈ 0.336 µM)
- MIC (S. aureus FDA209P; S. aureus FDA209P, 37° C., 20 hours, read-out: MIC): 1 µg/mL (≈ 0.672 µM)
- MIC (S. aureus ISP217; S. aureus ISP217, 37° C., 20 hours, read-out: MIC): 0.25 µg/mL (≈ 0.168 µM)
- MIC (S. aureus ISP447; S. aureus ISP447, 37° C., 20 hours, read-out: MIC): 0.25 µg/mL (≈ 0.168 µM)
- MIC (S. aureus Smith; S. aureus Smith, 37° C., 20 hours, read-out: MIC): 1 µg/mL (≈ 0.672 µM)
- MIC (S. epidermidis IFO12648; S. epidermidis IFO12648, 37° C., 20 hours, read-out: MIC): 4 µg/mL (≈ 2.69 µM)
- MIC (S. marcescens IFO12648; S. marcescens IFO12648, 37° C., 20 hours, read-out: MIC): > 16 µg/mL
- survival of silkworms infected with MRSA ([3]; 25 mg/kg into dorsal vessel, untreated infected silkworms all died within 72 hours): all survived after 72 hours of the inoculation
- toxicity against silkworms (survival, substance only) (silkworms): no toxicity against silkworms
- Solubility in solvent (Solubility in solvent): Soluble in methanol and water DMSO; also recorded: Insoluble in acetone, chloroform and hexane

Reference: US7973147B2, “K04-0144 substance and a process for production thereof” (The Kitasato Institute, priority 2006, dated 2011)
